This note sets out measurements from patent publication EP0008888A1, “Beta-lactam antibacterial compounds, their preparation and pharmaceutical compositions containing them” (BEECHAM GROUP PLC, priority 1978, dated 1980).

Molecules are shown by their SMILES. Values after ≈ are worked out from the molar mass of the structure shown. Read-outs that look alike come from different tables or passages of the source.

The term MIC denotes the smallest concentration in the dilution series that meets the test's criterion for growth inhibition.

Some test systems named below: Citrobacter freundii E8; Enterobacter cloacoae N1; Escherichia coli 0111; Escherichia coli JT39; Klebsiella aerogenes A; Proteus mirabilis C977; Proteus vulgaris WO91; Pseudomonas aeruginosa A; Serratia marcescens US20; Bacillus subtilis A.
Assay in all cases: MIC in a standard test
Holding throughout (type): cell-based

A further experiment deals with Proteus morganii I580. The following applies: Morganella morganii.
In a further experiment the test system is Proteus rettgeri WM16. To be noted: Providencia rettgeri.
Experiment [1] relates to Salmonella typhimurium CT10. The following applies: Salmonella enterica.
The test system of a further experiment is Shigella sonnei MB 11967. The following applies: MB11967.
For experiment [2], the system named is Staphylococcus aureus Oxford.
Experiment [3] relates to Staphylococcus aureus Russell.
In experiment [4] the test system is Staphylococcus aureus 1517.
The test system of a further experiment is Streptococcus faecalis I. The following applies: Enterococcus faecalis.
In experiment [5] the test system is Streptococcus pneumoniae CN33.
The test system of experiment [6] is Streptococcus pyogenes CN10.
Where [7] appears, read: standard test, Escherichia coli JT39, read-out: MIC.

As to `CCSC1=C(C(=O)O)N2C(=O)[C@@H](C)[C@H]2C1` (relative stereo) [Example 79, Sodium 3 - ethylthio-6β - methyl - 7 - oxo - 1 - azabicyclo [3.2 .O] hept - 2 - ene - 2 - carboxylate], the MIC against Citrobacter freundii E8 was found to be 6.2 µg/mL; with Enterobacter cloacoae N1, 6.2 µg/mL; against Escherichia coli 0111, 6.2 µg/mL; with Escherichia coli JT39 (setting [7]), 6.2 µg/mL; against Klebsiella aerogenes A, 3.1 µg/mL; in the experiment with Proteus mirabilis C977, 6.2 µg/mL. Also, the MIC in the experiment on Proteus morganii I580 was 25 µg/mL; against Proteus rettgeri WM16 it was 25 µg/mL; in the experiment with Proteus vulgaris WO91, 25 µg/mL; against Pseudomonas aeruginosa A, more than 50 µg/mL; in experiment [1], 3.1 µg/mL; in the experiment with Serratia marcescens US20, 12.5 µg/mL. Moreover, the MIC in the experiment with Shigella sonnei MB 11967 was 3.1 µg/mL; against Bacillus subtilis A, 6.2 µg/mL; in [2], 3.1 µg/mL; in [3], 6.2 µg/mL; in [4], more than 50 µg/mL; in the experiment on Streptococcus faecalis I it was more than 50 µg/mL. The MIC in experiment [5] came to 0.8 µg/mL; in experiment [6] it was 3.1 µg/mL.

For the compound `CCSC1=C(C(=O)OCc2ccc([N+](=O)[O-])cc2)N2C(=O)[C@@H](CCN=[N+]=[N-])[C@H]2C1` (relative stereo) [Example 82, p - Nitrobenzyl - 6β-(2 - azidoethyl) - 3 - ethylthio - 7 - oxo - 1 - azabicyclo [3.2.O] hept-2 - ene - 2 - carboxylate], the MIC with Citrobacter freundii E8 was found to be 3.1 µg/mL (≈ 7.43 µM); in the experiment with Enterobacter cloacoae N1, 12.5 µg/mL (≈ 29.9 µM); against Escherichia coli 0111, 1.6 µg/mL (≈ 3.83 µM); with Escherichia coli JT39 (setting [7]), 12.5 µg/mL (≈ 29.9 µM); in the experiment with Klebsiella aerogenes A, 1.6 µg/mL (≈ 3.83 µM); with Proteus mirabilis C977 it was 12.5 µg/mL (≈ 29.9 µM). The MIC in the experiment on Proteus morganii I580 was 12.5 µg/mL (≈ 29.9 µM); with Proteus rettgeri WM16, 6.2 µg/mL (≈ 14.9 µM); in the experiment with Proteus vulgaris WO91 it was 12.5 µg/mL (≈ 29.9 µM); in the experiment with Pseudomonas aeruginosa A, more than 50 µg/mL; in [1] it was 3.1 µg/mL (≈ 7.43 µM); against Serratia marcescens US20, 12.5 µg/mL (≈ 29.9 µM). The MIC in the experiment with Shigella sonnei MB 11967 was 3.1 µg/mL (≈ 7.43 µM); against Bacillus subtilis A, 1.6 µg/mL (≈ 3.83 µM); in experiment [2], 0.8 µg/mL (≈ 1.92 µM); in [3] it was 1.6 µg/mL (≈ 3.83 µM); in [4], 50 µg/mL (≈ 120 µM); in the experiment on Streptococcus faecalis I, 50 µg/mL (≈ 120 µM).

Take `CCSC1=C(C(=O)[O-])N2C(=O)CC2C1.[Na+]` (centres unmarked) [Example 7, Sodium 3-ethylthio-7-oxo-1-azabicyclo(3,2,0)hept-2-ene-2-carboxylate]: the minimal inhibitory concentration (MIC) in the experiment on Citrobacter freundii E8 is 2.5 µg/mL; against Enterobacter cloacoae N1 it was 2.5 µg/mL; with Escherichia coli 0111, 2.5 µg/mL; in the experiment with Escherichia coli JT39 (Escherichia coli, JT39) it was 50 µg/mL; with Klebsiella aerogenes A, 1 µg/mL; in the experiment with Proteus mirabilis C977, 10 µg/mL. The minimum inhibitory concentration (MIC) against Proteus morganii I580 is 10 µg/mL; in the experiment with Proteus rettgeri WM16 it was 50 µg/mL; against Proteus vulgaris WO91, 50 µg/mL; against Pseudomonas aeruginosa A, more than 100 µg/mL; in experiment [1] it was 2.5 µg/mL; against Serratia marcescens US20, 10 µg/mL. For the same compound, the MIC was 5.2 µg/mL against Shigella sonnei MB 11967; 1 µg/mL in the experiment on Bacillus subtilis A; 5 µg/mL in experiment [2]; 10 µg/mL in experiment [3]; more than 100 µg/mL in experiment [4]; 100 µg/mL with Streptococcus faecalis I. The MIC in experiment [5] and in experiment [6] was 1 µg/mL each time.

Consider `CCSC1=C(C(=O)OC2OC(=O)c3ccccc32)N2C(=O)C[C@H]2C1` (some centres unmarked) [Example 9, Phthalidyl 3-ethylthio-7-oxo-1-azabicyclo[3.2.0]hept-2-ene-2-carboxylate], for which the MIC is 12.5 µg/mL (≈ 36.2 µM) in the experiment on Citrobacter freundii E8; 12.5 µg/mL (≈ 36.2 µM) against Escherichia coli 0111; more than 50 µg/mL in the experiment with Escherichia coli JT39 (setting [7]); 12.5 µg/mL (≈ 36.2 µM) in the experiment on Klebsiella aerogenes A; 25 µg/mL (≈ 72.4 µM) against Proteus mirabilis C977; 25 µg/mL (≈ 72.4 µM) in the experiment with Proteus morganii I580. The MIC was more than 50 µg/mL against Proteus rettgeri WM16; more than 50 µg/mL in the experiment with Proteus vulgaris WO91; more than 50 µg/mL against Pseudomonas aeruginosa A; 12.5 µg/mL (≈ 36.2 µM) in experiment [1]; 50 µg/mL (≈ 145 µM) in the experiment on Serratia marcescens US20; 12.5 µg/mL (≈ 36.2 µM) in the experiment with Shigella sonnei MB 11967. Besides, the MIC was 25 µg/mL (≈ 72.4 µM) in the experiment with Bacillus subtilis A; more than 50 µg/mL in [2]; more than 50 µg/mL in experiment [3]; more than 50 µg/mL in [4]; more than 50 µg/mL in the experiment with Streptococcus faecalis I; 12.5 µg/mL (≈ 36.2 µM) in [6].

For the compound `NCCSC1=C(C(=O)O)N2C(=O)CC2C1` (centres unmarked) [Example 15, 3-Aminoethylthio-7-oxo-1-azabicyclo[3.2.0]hept-2-ene-2-carboxylic acid], the MIC against Citrobacter freundii E8 was 3.1 µg/mL (≈ 13.6 µM); against Enterobacter cloacoae N1, 3.1 µg/mL (≈ 13.6 µM); against Escherichia coli 0111, 3.1 µg/mL (≈ 13.6 µM); in the experiment with Escherichia coli JT39 (setting [7]), 1.6 µg/mL (≈ 7.01 µM); in the experiment on Klebsiella aerogenes A, 1.6 µg/mL (≈ 7.01 µM); against Proteus mirabilis C977 it was 25 µg/mL (≈ 110 µM). Besides, the MIC in the experiment on Proteus morganii I580 was 25 µg/mL (≈ 110 µM); with Proteus rettgeri WM16 it was 25 µg/mL (≈ 110 µM); against Proteus vulgaris WO91, 25 µg/mL (≈ 110 µM); with Pseudomonas aeruginosa A it was 6.2 µg/mL (≈ 27.2 µM); in experiment [1], 3.1 µg/mL (≈ 13.6 µM); against Serratia marcescens US20, 6.2 µg/mL (≈ 27.2 µM). Further, the MIC was 3.1 µg/mL (≈ 13.6 µM) with Shigella sonnei MB 11967; 0.8 µg/mL (≈ 3.5 µM) in the experiment with Bacillus subtilis A; 0.8 µg/mL (≈ 3.5 µM) in experiment [2]; more than 3.1 µg/mL in experiment [3]; 25 µg/mL (≈ 110 µM) with Streptococcus faecalis I; 0.2 µg/mL (≈ 0.876 µM) in experiment [5]. This compound showed an MIC in [6] of 0.4 µg/mL (≈ 1.75 µM).

In the case of `COC(=O)CCSC1=C(C(=O)O)N2C(=O)C[C@H]2C1` [Example 23, Potassium 3-(2-methoxycarbonylethvlthio)-7-oxo-l-azabicyclo[3.2.0]hept-2-ene-2-carboxylate], the MIC in the experiment on Citrobacter freundii E8 was found to be 1.6 µg/mL; against Escherichia coli 0111, 1.6 µg/mL; in the experiment on Escherichia coli JT39 (setting [7]) it was 6.2 µg/mL; in the experiment with Klebsiella aerogenes A, 1.6 µg/mL; against Proteus mirabilis C977, 12.5 µg/mL; in the experiment on Proteus morganii I580 it was 25 µg/mL. For the same compound, the MIC was 25 µg/mL against Proteus rettgeri WM16; 25 µg/mL in the experiment with Proteus vulgaris WO91; more than 50 µg/mL with Pseudomonas aeruginosa A; 3.1 µg/mL in experiment [1]; 25 µg/mL with Serratia marcescens US20; 3.1 µg/mL in the experiment on Bacillus subtilis A. The MIC in experiment [2] was 12.5 µg/mL; in experiment [3], 50 µg/mL; in [4], more than 50 µg/mL; against Streptococcus faecalis I, more than 50 µg/mL; in [5], not above 0.2 µg/mL; in [6], 0.8 µg/mL.

Regarding `COCCSC1=C(C(=O)O)N2C(=O)C[C@H]2C1` [Example 32, Sodium 3-(2-methxyethylthio)-7-oxo-1-azabicyclo[3.2.0] hept-2-ene-2-carboxylate], the MIC against Citrobacter freundii E8 worked out at 3.1 µg/mL; against Enterobacter cloacoae N1, 6.2 µg/mL; against Escherichia coli 0111, 3.1 µg/mL; in the experiment on Escherichia coli JT39 (setting [7]), 6.2 µg/mL; in the experiment with Klebsiella aerogenes A, 1.6 µg/mL; in the experiment with Proteus mirabilis C977, 6.2 µg/mL. The MIC against Proteus morganii I580 was 50 µg/mL; with Proteus rettgeri WM16, 50 µg/mL; with Proteus vulgaris WO91, 50 µg/mL; against Pseudomonas aeruginosa A, more than 100 µg/mL; in [1] it was 3.1 µg/mL; against Serratia marcescens US20, 12.5 µg/mL. The MIC is 3.1 µg/mL against Shigella sonnei MB 11967; 1.6 µg/mL against Bacillus subtilis A; 6.2 µg/mL in experiment [2]; 25 µg/mL in [3]; more than 50 µg/mL in experiment [4]; 50 µg/mL against Streptococcus faecalis I. The MIC was not above 0.2 µg/mL in experiment [5] and 1.6 µg/mL in experiment [6].

Turning to `CNC(=O)OCCSC1=C(C(=O)[O-])N2C(=O)CC2C1.[Na+]` (centres unmarked) [Example 37, Sodium 3-(2-methylcarbamoyloxyethylthio)-7-oxo-1-azabicyclo [3.2.0]hept-2-ene-2-carboxylate], the MIC amounted to 1.6 µg/mL against Citrobacter freundii E8; 1.6 µg/mL in the experiment on Enterobacter cloacoae N1; 0.8 µg/mL in the experiment on Escherichia coli 0111; 6.2 µg/mL in the experiment with Escherichia coli JT39 (Escherichia coli, JT39); 0.4 µg/mL with Klebsiella aerogenes A; 1.6 µg/mL against Proteus mirabilis C977. Besides, the MIC with Proteus morganii I580 is 12.5 µg/mL; in the experiment with Proteus rettgeri WM16, 12.5 µg/mL; with Proteus vulgaris WO91, 12.5 µg/mL; against Pseudomonas aeruginosa A, more than 50 µg/mL; in experiment [1], 0.8 µg/mL; with Serratia marcescens US20, 6.2 µg/mL. Besides, the MIC against Shigella sonnei MB 11967 is 0.8 µg/mL; with Bacillus subtilis A, 0.8 µg/mL; in experiment [2], 1.6 µg/mL; in experiment [3] it was 12.5 µg/mL; in experiment [4], more than 50 µg/mL; against Streptococcus faecalis I, 25 µg/mL. For the same compound, the MIC in [5] and in experiment [6] was not above 0.2 µg/mL in each case.

Regarding `CSC1=C(C(=O)[O-])N2C(=O)CC2C1.[Na+]` (centres unmarked) [Example 42, Sodium 3-methylthio-7-oxo-1-azabicyclo[3.2.0]hept-2-ene-2-carboxylate], the MIC stood at 1.6 µg/mL with Citrobacter freundii E8; 3.1 µg/mL in the experiment on Enterobacter cloacoae N1; 3.1 µg/mL against Escherichia coli 0111; 6.2 µg/mL with Escherichia coli JT39 (Escherichia coli, JT39); 3.1 µg/mL in the experiment on Klebsiella aerogenes A; 25 µg/mL in the experiment on Proteus mirabilis C977. For the same compound, the MIC against Proteus morganii I580 was 25 µg/mL; in the experiment on Proteus rettgeri WM16, 25 µg/mL; against Proteus vulgaris WO91 it was 25 µg/mL; in the experiment with Pseudomonas aeruginosa A, more than 50 µg/mL; in [1], 3.1 µg/mL; against Serratia marcescens US20, 3.1 µg/mL. Moreover, the MIC against Shigella sonnei MB 11967 is 3.1 µg/mL; with Bacillus subtilis A it was 1.6 µg/mL; in [2] it was 6.2 µg/mL; in experiment [3], 12.5 µg/mL; in [4], more than 50 µg/mL; with Streptococcus faecalis I it was more than 50 µg/mL. The MIC was not above 0.2 µg/mL in [5] and 0.8 µg/mL in [6].
